Results from patent publication US10059655B2, “Lipids and lipid compositions for the delivery of active agents” (priority 2013, dated 2018).

Tests used:
[1] = Percentage of encapsulated RNA and RNA concentration of replicon liposomes (Quant-iT RiboGreen); type: physicochemical; conditions: for %E (% entrapment) 1st IM / Conc (Concentration of RNA) 1st IM: RSV-F replicon RNA LNP prepared for 1st immunization; for %E (% entrapment) 2nd IM / Conc (Concentration of RNA) 2nd IM: RSV-F replicon RNA LNP prepared for 2nd immunization
Procedure: RNA was encapsulated in liposomes made essentially by the method of Geall et al. (2012) PNAS vol. 109 (36): 14604-14609, Jeffs et al. (2005) Pharmaceutical Research 22 (3):362-372, and Maurer et al. (2001) Biophysical Journal, 80: 2310-2326 The liposomes were made of 10% DSPC (zwitterionic), 40% cationic lipid, 48% cholesterol and 2% PEG-conjugated DMG (2 kDa PEG). These proportions refer to the % moles in the total liposome.
Briefly, lipids were dissolved in ethanol (2 ml), a RNA replicon was dissolved in buffer (2 ml, 100 mM sodium citrate, pH 6) and these were mixed with 2 ml of buffer followed by 1 hour of equilibration. The mixture was then dialized overnight against 1×PBS. The resulting product contained liposomes, with ˜70-95% encapsulation efficiency. For in vitro and in vivo experiments formulations were diluted to the required RNA concentration with 1×PBS.
The percentage of encapsulated RNA and RNA concentration were determined by Quant-iT RiboGreen RNA reagent kit (Invitrogen), following manufacturer's instructions. The ribosomal RNA standard provided in the kit was used to generate a standard curve. Liposomes were diluted 10× or 100× in 1×TE buffer (from kit) before addition of the dye. Separately, liposomes were diluted 10× or 100× in 1×TE buffer containing 0.5% Triton X before addition of the dye (to disrupt the liposomes and thus to assay total RNA). Thereafter an equal amount of dye was added to each solution and then ˜180 μL of each solution after dye addition was loaded in duplicate into a 96 well tissue culture plate. The fluorescence (Ex 485 nm, Em 528 nm) was read on a microplate reader. All liposome formulations were dosed in vivo based on the encapsulated amount of RNA.
% entrapment (% E), Concentration of RNA (Conc), particle size measured by DLS, and polydispersity reported by DLS of LNPs prepared with different cationic lipids

[2] = system: plasma Factor VII enzyme activity; assay: Factor VII Activity Assay after IV dosing of formulated Factor VII siRNA in mice; type: in vivo, mouse; conditions: 0.03 mpk, CD-1 mice, about 48 hours after injection
Procedure: Female CD-1 mice were received from Harlan Labs and maintained on standard lab chow and water ad libitum. The animals weighed approximately 25 gr at time of dosing. Formulated Factor VII siRNA was administered as a single dose intravenously via the lateral tail vein. Approximately 48 hours after injection, the mice were euthanized by CO2 inhalation followed by exsanguination through the vena cava.
Plasma collected from injected mice was assayed for Factor VII enzyme activity using the Biophen FVII kit from Hyphen Biomedical (catalog number 221304). An assay standard curve was prepared using pooled plasma aliquots from the vehicle control animals. All samples were diluted to fall within the linear range of the standard curve and Factor VII activity relative to control plasma was reported.
Lipid nanoparticles comprising lipid compounds of formula (I) and the FVII siRNA duplex sequence listed above were tested in the Factor VII Activity Assay. The results of this assay are given in Table 3 4 below as a percent knock down of plasma Factor VII enzyme activity at a dose of 0.3 mg/kg and 0.03 mg/kg.

hLeptin = assay: Human leptin in mouse plasma (ELISA) after subcutaneous injection of encapsulated leptin mRNA; type: in vivo; conditions: C57 mice
Procedure: Human leptin in mouse plasma was measured by ELISA. Antibodies purchased from the R&D Systems duoset (Cat# DY398E, part#840279 for capture antibody and part#840280 for detection antibody) were reconstituted using PBS and titered, again using PBS. The capture antibody was coated at 4 ug/ml in 30 ul/well on a white Nunc® Maxisorp 384 well plate (Cat#460372). After an overnight incubation at room temperature the capture antibody was aspirated and the plate blocked for 2 hours at room temperature with 90 ul/well of KPL milk blocker (Cat#50-82-00). Once the incubation was completed the plate was aspirated and recombinant standards and samples were added to the plate at 30 ul/well for 2 hours at 37° C. while shaking at 600 rpm. Sample/standard dilutions were made using casein sample diluent. Washing/aspiration 3 times with 100 ul/well followed, using Teknova plate wash solution (Cat# P1192). […] The plate was quickly read using a SpectramaxM5 plate reader with a 50 ms integration time. […]
Prior to subcutaneous injection, mouse body weights were recorded and diet weighted, with mice grouped according to their body weights. […]
On day 0, animals were weighed and sorted according to average body weight. ice were dosed at 9 AM and blood was taken at 9 AM on day 0. Blood was also taken at 9 AM on each of days 1 and 2 and assessed for leptin protein levels. Body weight and food intake were also recorded.

hFIX = assay: Human Factor IX ELISA after IV injection of encapsulated hFIX mRNA; type: in vivo; conditions: 0.12 mpk, C57 mice, @ 24 h
Procedure: An sheep anti-human Factor IX antibody (Cat# FIX-EIA-C) from Enzyme Research Laboratories is coated on 384-well white microtiter plates overnight at a concentration of 5 ug/ml, then blocked for assay using KPL blocker (Cat#50-82-00). Then, plasma samples are diluted in a casein-based sample diluent and incubated on the plate with biological controls and a standard curve created from recombinant protein (Cat#HCIX-0040). The plate is then washed to remove unbound material. A biotinylated sheep anti-human Factor IX antibody (Cat# FIX-EIA-D) from Enzyme Research Laboratories is then added to the plate at 0.6 ug/ml to detect human Factor IX protein bound by the capture antibody. The plate is washed again and a streptavidin-conjugated horseradish peroxidase reagent (Cat#21140) diluted 1:1250, is incubated on the plate. A third wash step is performed and chemiluminescent reagents (Cat#1859678 & Cat#18596789) are combined and added to the plate and immediately read by a capable plate reader using all wavelengths and a 50 millisecond integration time. Unknown samples are interpolated off the human recombinant Factor IX standard curve.

| Compound | %E (% entrapment) 1st IM [1] [%] | Conc (Concentration of RNA) 1st IM [1] [ng/mL] | %E (% entrapment) 2nd IM [1] [%] | Conc (Concentration of RNA) 2nd IM [1] [ng/mL] | FVII knock-down (%) following IV injection of encapsulated siRNA [2] [%/0.03 mpk] | Expression of protein following SC injection of encapsulated mRNA: hLeptin (hLeptin; 0.4 mpk) [ng/mL] | Expression of protein following IV injection of encapsulated mRNA: hFIX (hFIX) [ng/mL] | Expression of protein following SC injection of encapsulated mRNA: hLeptin (hLeptin; 0.6 mpk) [ng/mL] |
| --- | --- | --- | --- | --- | --- | --- | --- | --- |
| CCCCC/C=C\C/C=C\CCCCCCCC(=O)OCC(COC(=O)CCCCCCC/C=C\C/C=C\CCCCC)COC(=O)C1(C)CCN(C)C1 (centres unmarked) [Example 1, (9Z,9′Z,12Z,12′Z)-2-(((1,3-dimethylpyrrolidine-3-carbonyl)oxy)methyl)propane-1,3-diyl bis(octadeca-9,12-dienoate)] | 96.21 | 10352 | 91.99 | 11279 | 69 | 2.5 | 147.7 |  |
| CCCCC/C=C\C/C=C\CCCCCCCC(=O)OCC(COC(=O)CCC(OCCCCCCCC)OCCCCCCCC)COC(=O)OCCCN(CC)CC (centres unmarked) [Example 13, (9Z,12Z)-3-((4,4-bis(octyloxy)butanoyl)oxy)-2-((((3-(diethylamino)propoxy)carbonyl)oxy)methyl)propyl octadeca-9,12-dienoate] |  |  |  |  | 97 |  | 292.7 |  |
| CCCCC/C=C\C/C=C\CCCCCCCC(=O)OCC(COC(=O)CCC(OCCCCCCCC)OCCCCCCCC)COC(=O)OCC1CCCN(CC)C1 (centres unmarked) [Example 15, (9Z,12Z)-3-((4,4-bis(octyloxy)butanoyl)oxy)-2-(((((1-ethylpiperidin-3-yl)methoxy)carbonyl)oxy)methyl)propyl octadeca-9,12-dienoate] | 94.26 | 10203 | 96.64 | 10091 |  |  |  | 6.2 |
